Laboratory results: patent publication US6096874A (Board of Regents, the University of Texas System, priority 1995, dated 2000)
Like-named read-outs stand apart in the source and are kept apart here.

Key:
in vivo = assay: in vivo; design: species or system rat; conditions: for Tumor uptake: 120 min; for tissue uptake at 0.5 h / tissue uptake at 2 h / tissue uptake at 4 h: iv; for tissue uptake at 0.5 h: 30 min
Protocol: In animal tissue distribution studies, each rate was given 8.9 μCi (0.15 ml) tracer intravenously. The tumor-bearing rats were killed at 1, 3, 6 and 24 h. […] The amount of DES given should occupy tumor estrogen receptor sites. The methods for inducing tumors in rats was as described by those of skill in the art (radiology). […]
Female Fisher 344 rats (250-275 g) (Harlan, Inc., Indianapolis, Ind.) were inoculated with mammary tumor cells using the 13762 tumor cell line (s.c. 10^5 cells/rat). After 14 days, a tumor size of 1-2 cm was observed. For ^131 I-ITX studies, five groups of rats (N=3/group) were anesthetized with ketamine (10-15 mg/rat). The trans ^131 I-ITX was given to four of the five groups (8.9 μCi/rat, i.v.) and biodistribution was studied at 1, 3, 6 and 24 h intervals. In blocking studies, the fifth group of rats was given diethylstilbestrol (DES) (1.2 mg/rat) for 1 h, followed by 8.9 μCi of ^131 I-ITX; biodistribution was studied 6 h later. The tissues were collected at different time intervals. The tissues were weighted and counted for radioactivity. The percent of injected dose per gram of tissue weight was calculated. […]

breast tumors = assay: PET imaging of ER+ breast tumors in patients; assay type: in vivo, human
Protocol: This example describes a ligand for imaging ER (+) breast tumors by positron emission tomography (PET) or single photon emission computed tomography (SPECT).
PET imaging was performed on three breast cancer patients (age 54±3) (ER+) with a positron camera (Positron Corporation, Houston, Tex.). Each patient was positioned supine in the scanner so that the detector rings would span the entire breast cancer region. A 20-min attenuation scan was performed with a 4 mCi [^68 Ge]-ring source prior to [^18 F]FTX. After each patient received 4 mCi of {^18 F]FTX, six consecutive 20 min scans were acquired. Serial transaxial images were performed. The tomograph has a field-of-view of 42 cm on transverse and 12 cm on coronal plans. The axial resolution on the reconstructed plan is 1.2 cm. […] The SUV value is generated using a dedicated computer.

[1] = 2 h, pretreated with DES (blocking)
[2] = rat, blood, read-out: Blood uptake
[3] = rat, bone, read-out: Bone uptake
[4] = rat, kidney, read-out: Kidney uptake
[5] = rat, liver, read-out: Liver uptake
[6] = rat, lung, read-out: Lung uptake
[7] = rat, muscle, read-out: Muscle uptake
[8] = rat, tumor, read-out: Tumor uptake
[9] = rat, uterus, read-out: Uterus uptake

Q: With CCN(CC)CCOc1ccc(/C(=C(/CCC[18F])c2ccccc2)c2ccccc2)cc1 [[^18 F]FTX, (trans)[^18 F]Fluoromethyl-N,N-diethyltamoxifen] as the compound, how does the Blood uptake (in vivo; [1]) read?
A: 0.102 % injected dose/gram tissue

Q: And the Bone uptake (in vivo; [1])?
A: 0.278 % injected dose/gram tissue

Q: What about the Kidney uptake (in vivo; [1]) of the same compound?
A: 1.241 % injected dose/gram tissue

Q: And the Liver uptake (in vivo; [1])?
A: 7.242 % injected dose/gram tissue

Q: And the Lung uptake (in vivo; [1])?
A: 2.084 % injected dose/gram tissue

Q: And the Muscle uptake (in vivo; [1])?
A: 0.131 % injected dose/gram tissue

Q: And the Uterus uptake (in vivo; [1])?
A: 0.435 % injected dose/gram tissue

Q: What about the Tumor uptake (in vivo; [1]) of the same compound?
A: 0.24±0.017 % injected dose/gram tissue

Q: And the Tumor uptake (in vivo; 2 h, pretreated with DES (blocking), listed as [^18 F]FLUOROMETHYL-N,N-DIETHYL-TAMOXIFEN)?
A: 0.244 % injected dose/gram tissue

Q: And the Tumor uptake (in vivo; 2 h)?
A: 0.405 % injected dose/gram tissue

Q: What about the tissue uptake at 0.5 h (in vivo; [2]) of the same compound?
A: 0.169 %ID/g

Q: And the tissue uptake at 2 h (in vivo; rat, blood, 2 h, read-out: Blood uptake)?
A: 0.114 %ID/g

Q: What about the tissue uptake at 4 h (in vivo; [2]) of the same compound?
A: 0.069 %ID/g

Q: What about the tissue uptake at 0.5 h (in vivo; [3]) of the same compound?
A: 0.264 %ID/g

Q: And the tissue uptake at 2 h (in vivo; rat, bone, 2 h, read-out: Bone uptake)?
A: 0.482 %ID/g

Q: What about the tissue uptake at 4 h (in vivo; [3]) of the same compound?
A: 0.258 %ID/g

Q: And the “Tissue uptake findings (in words)” value (in vivo; rat, in vivo)?
A: increased uptake in the tumor and uterus can be blocked by pretreatment with diethylstilbestrol (DES)

Q: What about the tissue uptake at 0.5 h (in vivo; [4]) of the same compound?
A: 1.71 %ID/g

Q: And the tissue uptake at 2 h (in vivo; rat, kidney, 2 h, read-out: Kidney uptake)?
A: 2.08 %ID/g

Q: What about the tissue uptake at 4 h (in vivo; [4]) of the same compound?
A: 0.652 %ID/g

Q: What about the tissue uptake at 0.5 h (in vivo; [5]) of the same compound?
A: 6.36 %ID/g

Q: And the tissue uptake at 2 h (in vivo; rat, liver, 2 h, read-out: Liver uptake)?
A: 6.93 %ID/g

Q: And the tissue uptake at 4 h (in vivo; [5])?
A: 6.5 %ID/g

Q: What about the tissue uptake at 0.5 h (in vivo; [6]) of the same compound?
A: 3.82 %ID/g

Q: And the tissue uptake at 2 h (in vivo; rat, lung, 2 h, read-out: Lung uptake)?
A: 3.5 %ID/g

Q: And the tissue uptake at 4 h (in vivo; [6])?
A: 1.31 %ID/g

Q: And the tissue uptake at 0.5 h (in vivo; [7])?
A: 0.183 %ID/g

Q: What about the tissue uptake at 2 h (in vivo; rat, muscle, 2 h, read-out: Muscle uptake) of the same compound?
A: 0.234 %ID/g

Q: And the tissue uptake at 4 h (in vivo; [7])?
A: 0.093 %ID/g

Q: What about the tissue uptake at 0.5 h (in vivo; [8]) of the same compound?
A: 0.256 %ID/g

Q: And the tissue uptake at 2 h (in vivo; rat, tumor, 2 h, read-out: Tumor uptake)?
A: 0.41 ± 0.07 %ID/g

Q: And the tissue uptake at 4 h (in vivo; [8])?
A: 0.284 %ID/g

Q: And the tissue uptake at 0.5 h (in vivo; [9])?
A: 0.536 %ID/g

Q: What about the tissue uptake at 4 h (in vivo; [9]) of the same compound?
A: 0.364 %ID/g

Q: What about the SUV (breast tumors; patient 1, left axilla) of the same compound?
A: 0.7

Q: What about the SUV (breast tumors; patient 2, mediastinum) of the same compound?
A: 1.8

Q: What about the SUV (breast tumors; patient 3, left axilla) of the same compound?
A: 2.6

Q: And the SUV (breast tumors; patient 3, right axilla)?
A: 2.2

Q: What about the SUV (breast tumors; patient 3, right breast) of the same compound?
A: 1.6

Q: And the SUV (breast tumors; patient 3, spine)?
A: 3.0

Q: And the “SUV of breast tumors” value (breast tumors; three patients, 4 mCi)?
A: 2-5

Q: What about the “SUV in tumor of patients responding well to tamoxifen therapy” value (breast tumors; three patients, listed as 18 F-tamoxifen) of the same compound?
A: > 2.4

Q: What about the “SUV in tumor of patients responding well to tamoxifen therapy” value (breast tumors; three patients, listed as [^18 F]fluorotamoxifen) of the same compound?
A: more than 2.4
